Test results published in ChEMBL document CHEMBL1201862, “PubChem BioAssay data set” (2004).
Several values for one entry are separate records, joined by “and”; a condition that tells them apart may be missing. Equal entries are not always repeated.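 Briefly, cells in 96-well plates were exposed to five compound concentrations for 48 h, and endpoints were estimated by linear interpolation. GI50: concentration for 50% inhibition of growth.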 Activity calls are given as the source filed them. No stated cut-off is given here; in the data, active = GI50 up to about 1.1 µM and inactive = higher.

Assays:
Assay in all cases: NCI anticancer screen, dose series, 48 h
786-0 = system: 786-0
A498 = system: A498
A549 = system: A549
ACHN = system: ACHN
CAKI-1 = system: CAKI-1
CCRF-CEM = system: CCRF-CEM
COLO 205 = system: COLO 205
DLD-1 = system: DLD-1
DMS-114 = system: DMS-114
DMS-273 = system: DMS-273
EKVX = system: EKVX
HCC 2998 = system: HCC 2998
HCT-116 = system: HCT-116
HCT-15 = system: HCT-15
HL-60 = system: HL-60
HOP-18 = system: HOP-18
HOP-62 = system: HOP-62
HOP-92 = system: HOP-92
HT-29 = system: HT-29
IGROV-1 = system: IGROV-1
K562 = system: K562
KM-20L2 = system: KM-20L2
KM12 = system: KM12
LOX IMVI = system: LOX IMVI
LXFL 529 = system: LXFL 529
M14 = system: M14
M19-MEL = system: M19-MEL
MCF7 = system: MCF7
MOLT-4 = system: MOLT-4
Malme-3M = system: Malme-3M
NCI-H226 = system: NCI-H226
NCI-H23 = system: NCI-H23
NCI-H460 = system: NCI-H460
NCI-H522 = system: NCI-H522
NCI/ADR-RES = system: NCI/ADR-RES
OVCAR-3 = system: OVCAR-3
OVCAR-4 = system: OVCAR-4
OVCAR-5 = system: OVCAR-5
OVCAR-8 = system: OVCAR-8
RPMI-8226 = system: RPMI-8226
RXF 393 = system: RXF 393
SF-268 = system: SF-268
SF-295 = system: SF-295
SF-539 = system: SF-539
SK-MEL-28 = system: SK-MEL-28
SK-MEL-2 = system: SK-MEL-2
SK-MEL-5 = system: SK-MEL-5
SK-OV-3 = system: SK-OV-3
SN12C = system: SN12C
SNB-19 = system: SNB-19
SNB-75 = system: SNB-75
SNB-78 = system: SNB-78
SW-620 = system: SW-620
TK-10 = system: TK-10
U-251 = system: U-251
UACC-257 = system: UACC-257
UACC-62 = system: UACC-62
UO-31 = system: UO-31
XF498 = system: XF498
BT-549 = system: BT-549
DU-145 = system: DU-145
Hs-578T = system: Hs-578T
MDA-MB-231 = system: MDA-MB-231
MDA-MB-435 = system: MDA-MB-435
MDA-N = system: MDA-N
PC-3 = system: PC-3
SR = system: SR
T47D = system: T47D
RXF 631 = system: RXF 631

Measured: GI50

O=S1(=O)N2CN3CN(C2)CN1C3
inactive: 786-0 30.5 µM | A498 223 µM | A549 280 µM | ACHN 108 µM | CAKI-1 205 µM | CCRF-CEM > 31.6 µM | COLO 205 25.4 µM | DLD-1 33.4 µM | DMS-114 23.7 µM | DMS-273 27 µM | EKVX 370 µM | HCC 2998 255 µM | HCT-116 21.6 µM | HL-60 23.1 µM | HOP-18 > 50.1 µM | HOP-62 234 µM | HOP-92 > 100 µM | HT-29 26 µM | IGROV-1 278 µM | K562 > 31.6 µM | KM-20L2 > 91.8 µM | KM12 93.8 µM | LOX IMVI 36.8 µM | LXFL 529 18.2 µM | M14 36.2 µM | M19-MEL 62.1 µM | MCF7 56.8 µM | MOLT-4 105 µM | Malme-3M 129 µM | NCI-H226 28.1 µM | NCI-H23 20.5 µM | NCI-H460 51.5 µM | NCI-H522 177 µM | NCI/ADR-RES > 100 µM | OVCAR-3 > 10 µM | OVCAR-4 28.7 µM | OVCAR-5 208 µM | OVCAR-8 > 86.5 µM | RPMI-8226 28.7 µM | RXF 393 56.9 µM | SF-268 > 58.3 µM | SF-295 23.8 µM | SF-539 > 100 µM | SK-MEL-28 > 83.6 µM | SK-MEL-2 141 µM | SK-MEL-5 32.4 µM | SK-OV-3 230 µM | SN12C 34.9 µM | SNB-19 238 µM | SNB-75 28.8 µM | SNB-78 28.1 µM | SW-620 23.7 µM | TK-10 286 µM | U-251 331 µM | UACC-257 30.1 µM | UACC-62 22.6 µM | UO-31 182 µM | XF498 > 100 µM
23.2 µM: HCT-15

CCN(CC)CCN1C(=O)c2c(c3c4cccc(Cl)c4n(C4OC(CO)C(OC)C(O)C4O)c3c3[nH]c4c(Cl)cccc4c23)C1=O (stereo not given)
0.103 µM and 0.132 µM: HCT-15
active: BT-549 0.175 µM | CCRF-CEM < 0.0166 µM | DLD-1 0.0918 µM | DMS-114 0.0413 µM | DMS-273 < 0.0178 µM | DU-145 0.0121 µM | HCT-116 < 0.0164 µM | HOP-18 0.00101 µM | HOP-92 < 34.4 nM and < 24 nM | HT-29 < 0.0189 µM | Hs-578T 0.0379 µM | KM-20L2 0.773 µM | LXFL 529 < 0.0239 µM | M19-MEL 0.0303 µM | MCF7 < 0.01 µM | MDA-MB-231 0.182 µM | MDA-MB-435 0.0147 µM | MDA-N 0.0111 µM | MOLT-4 < 10 nM and 17.6 nM | NCI/ADR-RES 0.169 µM | PC-3 < 0.0386 µM | SF-295 < 0.0165 µM | SK-MEL-2 42.8 nM and 68.1 nM | SNB-78 0.00101 µM | SR < 0.0137 µM | T47D 0.0212 µM | XF498 0.0463 µM

O=C(N[C@H]1CC2(C=C(I)C(=O)C(I)=C2)OC1=O)OCc1ccccc1
inactive: 786-0 20.8 µM | A498 > 100 µM | A549 42.8 µM | ACHN 18.5 µM | CAKI-1 20.4 µM | CCRF-CEM 2.61 µM | COLO 205 14.5 µM | DLD-1 15.7 µM | DMS-114 19.8 µM | EKVX 14.3 µM | HCC 2998 17.9 µM | HCT-116 15.9 µM | HL-60 3.93 µM | HOP-62 22.6 µM | HT-29 17.5 µM | K562 10.4 µM | KM-20L2 18.6 µM | KM12 16 µM | LOX IMVI 16 µM | LXFL 529 16.6 µM | M14 17.2 µM | Malme-3M 17.3 µM | NCI-H226 22.7 µM | NCI-H23 17.8 µM | NCI-H460 21.1 µM | NCI-H522 13.4 µM | OVCAR-3 17.3 µM | OVCAR-4 18.4 µM | OVCAR-5 18.9 µM | OVCAR-8 17.3 µM | RPMI-8226 26.2 µM | RXF 393 15.2 µM | RXF 631 17.1 µM | SF-268 18.1 µM | SF-295 19.5 µM | SF-539 17.7 µM | SK-MEL-28 18.5 µM | SK-MEL-5 27 µM | SK-OV-3 34.8 µM | SN12C 18.2 µM | SNB-19 21.8 µM | SNB-75 19.6 µM | SNB-78 17.4 µM | TK-10 17.7 µM | U-251 17.3 µM | UACC-257 16.4 µM | UACC-62 16.5 µM | UO-31 18.2 µM | XF498 13.8 µM
20.9 µM: HCT-15

COC(=O)[C@]1(C)CCCC2(C)C1CC[C@H]1C=C(C)[C@H]3CCC12C3 (stereo not given in full)
> 100 µM: HCT-15
inactive: 786-0 > 100 µM | A549 > 100 µM | ACHN > 100 µM | CAKI-1 > 100 µM | CCRF-CEM > 100 µM | COLO 205 > 100 µM | DLD-1 > 100 µM | DMS-114 86.9 µM | HCC 2998 > 100 µM | HCT-116 40.3 µM | HL-60 86.1 µM | HOP-62 > 100 µM | HOP-92 > 100 µM | HT-29 49.9 µM | IGROV-1 > 100 µM | K562 > 100 µM | KM-20L2 > 100 µM | KM12 > 100 µM | LOX IMVI 68.2 µM | LXFL 529 > 100 µM | M14 > 100 µM | MOLT-4 > 100 µM | Malme-3M > 100 µM | NCI-H226 > 100 µM | NCI-H23 > 100 µM | NCI-H460 44.5 µM | NCI-H522 45 µM | OVCAR-3 > 100 µM | OVCAR-4 > 100 µM | OVCAR-5 > 100 µM | OVCAR-8 > 100 µM | RPMI-8226 > 100 µM | RXF 393 55.3 µM | RXF 631 > 100 µM | SF-268 > 100 µM | SF-295 > 100 µM | SF-539 > 100 µM | SK-MEL-28 > 100 µM | SK-MEL-5 98.2 µM | SK-OV-3 > 100 µM | SN12C > 100 µM | SNB-19 > 100 µM | SNB-75 > 100 µM | SNB-78 > 100 µM | SR > 100 µM | SW-620 > 100 µM | TK-10 > 100 µM | U-251 > 100 µM | UACC-257 37.5 µM | UACC-62 > 100 µM | UO-31 > 100 µM | XF498 > 100 µM

CCOC(=O)C1S/C(=N\c2ccc(C)c(C)c2)N=C1C (stereo not given)
> 100 µM: HCT-15
inactive: 786-0 > 100 µM | A498 > 100 µM | A549 > 100 µM | ACHN > 100 µM | CAKI-1 > 100 µM | CCRF-CEM > 100 µM | COLO 205 > 100 µM | DLD-1 > 100 µM | DMS-114 > 100 µM | DMS-273 > 100 µM | EKVX > 100 µM | HCC 2998 > 100 µM | HL-60 61 µM | HOP-18 > 100 µM | HOP-62 > 100 µM | HOP-92 > 100 µM | HT-29 > 100 µM | IGROV-1 > 100 µM | K562 59.3 µM | KM-20L2 > 100 µM | KM12 > 100 µM | LOX IMVI 75.2 µM | LXFL 529 > 100 µM | M14 > 100 µM | M19-MEL > 100 µM | MOLT-4 > 100 µM | Malme-3M > 100 µM | NCI-H226 > 100 µM | NCI-H23 > 100 µM | NCI-H460 > 100 µM | NCI-H522 > 100 µM | OVCAR-3 > 100 µM | OVCAR-4 > 100 µM | OVCAR-5 > 100 µM | OVCAR-8 > 100 µM | RPMI-8226 85.7 µM | SF-268 > 100 µM | SF-295 > 100 µM | SF-539 > 100 µM | SK-MEL-28 > 100 µM | SK-MEL-2 > 100 µM | SK-MEL-5 52.7 µM | SK-OV-3 > 100 µM | SN12C > 100 µM | SNB-19 > 100 µM | SNB-75 66.8 µM | SR > 100 µM | SW-620 > 100 µM | TK-10 > 100 µM | U-251 > 100 µM | UACC-257 > 100 µM | UACC-62 > 100 µM | UO-31 > 100 µM | XF498 > 100 µM
